Measured values reported in PubChem BioAssay AID743170 (Sanford-Burnham Center for Chemical Genomics, 2013).
Where “and” joins values, the source holds several entries; their conditions need not be identical. Identical values can stand only once. Calls of active or inactive are those of the source.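 Rule for the calls: active = compounds that lower Nile red lipid droplet staining in rat heart muscle cells with dose, giving a fitted IC50; inactive = the rest.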

Test system: H9c2 cells, Nile red TAG accumulation, high-content imaging
Experiment: Nile red lipid droplet reduction, imaging readout – H9c2 cells, high-content screening, dose response (AID 743170)

Row | SMILES | IC50
1 | COCCN1Cc2cccc(C(=O)Nc3cccc(-c4nc5ccc(F)cc5[nH]4)c3)c2C1=O | 762 nM
2 | COCCN1Cc2cccc(C(=O)Nc3cccc(-c4nc5ccc(C)cc5[nH]4)c3)c2C1=O | 393 nM
3 | CCOCCN1Cc2cccc(C(=O)Nc3cccc(-c4nc5ccccc5[nH]4)c3)c2C1=O | 792 nM
4 | COCCN1Cc2cccc(C(=O)Nc3cccc(-c4nc5ccc(C(F)(F)F)cc5[nH]4)c3)c2C1=O | 352 nM
5 | CSCCCN1Cc2cccc(C(=O)Nc3cccc(-c4nc5ccccc5[nH]4)c3)c2C1=O | 526 nM
6 | COCCN1Cc2cccc(C(=O)Nc3cccnc3)c2C1=O | > 50000 nM (inactive)
7 | COCCn1cnc2cccc(C(=O)Nc3cccc(-c4nc5ccccc5[nH]4)c3)c2c1=O | > 50000 nM (inactive)
8 | O=C(Nc1cccc(-c2nc3ccccc3[nH]2)c1)c1cccc2c1C(=O)N(CCc1ccccc1)C2 | 11200 nM
9 | COCCN1Cc2cccc(C(=O)Nc3cccc(C(=O)Nc4ccccc4)c3)c2C1=O | 2330 nM
10 | COCCN1Cc2cccc(C(=O)Nc3cccc(C(=O)Nc4ccccc4OC)c3)c2C1=O | 2490 nM
11 | CCCCN1Cc2cccc(C(=O)Nc3cccc(-c4nc5ccccc5[nH]4)c3)c2C1=O | 760 nM
12 | O=C(Nc1cccc(-c2nc3ccccc3[nH]2)c1)c1cccc2c1C(=O)N(CC1CC1)C2 | 662 nM
13 | COCCN1Cc2cccc(C(=O)Nc3nc4ccccc4n3C)c2C1=O | > 50000 nM (inactive)
14 | COCCN1Cc2cccc(C(=O)Nc3cccc(-c4nc5ccc(Cl)cc5[nH]4)c3)c2C1=O | 1020 nM
15 | COCCN1Cc2cccc(C(=O)Nc3cccc(-c4nc5ccccc5[nH]4)c3)c2C1=O | 567 nM and 569 nM and 839 nM
16 | O=C(Nc1cccc(-c2nc3ccccc3[nH]2)c1)c1cccc2c1C(=O)N(CCOc1ccccc1)C2 | 793 nM
17 | COc1ccc(CCN2Cc3cccc(C(=O)Nc4cccc(-c5nc6ccccc6[nH]5)c4)c3C2=O)cc1OC | 829 nM
18 | COCCN1Cc2cccc(C(=O)NCc3cccc(N(C)C)c3)c2C1=O | > 50000 nM (inactive)
19 | COCCN1Cc2cccc(C(=O)Nc3nc4ccccc4[nH]3)c2C1=O | > 50000 nM (inactive)
20 | COc1ccccc1CCN1Cc2cccc(C(=O)Nc3cccc(-c4nc5ccccc5[nH]4)c3)c2C1=O | 432 nM
21 | O=C(Nc1cccc(-c2nc3ccccc3[nH]2)c1)c1cccc2c1C(=O)N(CCN1CCOCC1)C2 | 1750 nM
22 | COCCCN1Cc2cccc(C(=O)Nc3cccc(-c4nc5ccccc5[nH]4)c3)c2C1=O | 1370 nM
23 | CCOC(=O)c1cccc(NC(=O)c2cccc3c2C(=O)N(CCOC)C3)c1 | > 50000 nM (inactive)
